According to ChEMBL document CHEMBL4390673, “Identification of Novel Coumestan Derivatives as Polyketide Synthase 13 Inhibitors against Mycobacterium tuberculosis. Part II” (J Med Chem, 2019):
≈ marks a conversion by molar mass, not a printed value. Calls of active or inactive are those of the source. The calls are words filed in the database; no cut-off is given here.

Tests used:
Vero = test: Cytotoxicity against African green monkey Vero cells by microplate alamar blue assay; format: cell-based; settings: Chlorocebus sabaeus
[1] = Selectivity index, ratio of IC50 for African green monkey Vero cells to MIC=; format: toxicity; settings: read-out: Ratio IC50
[2] = system: Mycobacterium tuberculosis; test: Antitubercular activity against Mycobacterium tuberculosis H37Rv by microdilution method; format: functional
[3] = system: Mycobacterium tuberculosis; test: Antitubercular activity against Mycobacterium tuberculosis H37Rv exposed to serially diluted serum from 100 mg/kg, po treated BALB/c mouse assessed as reduction in bacterial growth measured after 7 days by microplate alamar blue assay; format: functional, organism-based
[4] = system: Mycobacterium tuberculosis; test: Antitubercular activity against Mycobacterium tuberculosis H37Rv after 6 days by resazurin dye based fluorescence assay; settings: 144 h
HFL1 = test: Cytotoxicity against HFL1 cells measured after 48 hrs by CellTiter 96 AQueous One Solution Cell Proliferation assay; format: cell-based; settings: Homo sapiens, HFL1, 48 h
Escherichia coli [5] = test: Growth inhibition of Escherichia coli AB1157; format: organism-based; settings: in vivo
HEK293 = test: Cytotoxicity against HEK293 cells measured after 48 hrs by CellTiter 96 AQueous One Solution Cell Proliferation assay; format: cell-based; settings: Homo sapiens, HEK293, 48 h
[6] = Cytotoxicity against human QSG7701 cells measured after 48 hrs by CellTiter 96 AQueous One Solution Cell Proliferation assay; format: cell-based; settings: QSG7701, 48 h
Escherichia coli [7] = test: Growth inhibition of Escherichia coli DH5[alpha]; format: organism-based; settings: in vivo
MRC5 = test: Cytotoxicity against human MRC5 cells measured after 48 hrs by CellTiter 96 AQueous One Solution Cell Proliferation assay; format: cell-based; settings: MRC5, 48 h
[8] = system: Mycobacterium tuberculosis; test: Antitubercular activity against Mycobacterium tuberculosis H37Rv exposed to 1:1024 diluted serum from 50 mg/kg, po treated BALB/c mouse assessed as reduction in bacterial growth measured after 7 days by microplate alamar blue assay; format: functional, organism-based
Bacillus subtilis = test: Growth inhibition of Bacillus subtilis 168; format: organism-based, subsp. subtilis str. 168
in vitro [9] = settings: human, liver microsomes
Description: Intrinsic clearance in human liver microsomes

in vitro [10] = settings: human, liver microsomes; remark: listed apart in the source
Description: Intrinsic clearance in human liver measured from intrinsic clearance in human liver microsomes

in vitro [11] = settings: human, liver microsomes; remark: listed apart in the source
Description: Stability in human liver microsomes assessed as parent compound remaining measured after 60 mins

in vitro [12] = settings: human, liver microsomes; remark: listed apart in the source
Description: Half life in human liver microsomes

[13] = system: Mycobacterium tuberculosis; test: Antitubercular activity against Mycobacterium tuberculosis H37Rv exposed to serially diluted serum from 10 mg/kg, po treated BALB/c mouse assessed as reduction in bacterial growth measured after 7 days by microplate alamar blue assay; format: functional, organism-based
[14] = system: Mycobacterium tuberculosis; test: Antitubercular activity against Mycobacterium tuberculosis H37Rv measured after 7 days under aerobic condition by resazurin dye based assay; format: functional; settings: 168 h
[15] = system: Mycobacterium tuberculosis; test: Bactericidal activity against Mycobacterium tuberculosis H37Rv assessed as reduction in colony forming units incubated for 14 days followed by replating on 7H11 agar plates and measured by broth dilution method; format: functional
Staphylococcus aureus = test: Growth inhibition of Staphylococcus aureus Newman; format: organism-based; settings: in vivo
[16] = system: Mycobacterium tuberculosis; test: Antitubercular activity against Mycobacterium tuberculosis H37Rv; format: functional
[17] = system: Mycobacterium tuberculosis; test: Antitubercular activity against Mycobacterium tuberculosis H37Rv measured after 7 days by alamar blue assay; format: functional; settings: 168 h

Q: What does the source list for `CC1CCN(Cc2c(O)ccc3oc4c5ccccc5oc(=O)c4c23)CC1`?
A: IC50 (Vero): 16 mg/L (≈ 44 µM); selectivity ratio [1]: 32

Q: With `Cc1cc(O)c(CN2CCCCC2)c2c1oc1c3ccccc3oc(=O)c12` as the compound, how does the IC50 (Vero) read?
A: Its IC50 is 8 mg/L (≈ 22 µM).

Q: And the selectivity ratio [1]?
A: Its selectivity ratio is 64.

Q: For `CCOC(=O)c1c(NC(=O)c2c(F)c(F)c(F)c(F)c2F)sc(C(N)=O)c1C`, which MIC [2] is on record?
A: The MIC was 0.5 µM (≈ 0.211 µg/mL).

Q: With `CNC(=O)c1c(-c2ccc(O)cc2)oc2ccc(O)c(CN3CCCCC3)c12` as the compound, how does the Activity [3] read?
A: Its Activity is “Active”.

Q: What about the MIC [4] of the same compound?
A: The MIC was 0.0313 mg/L (≈ 0.0823 µM).

Q: Which IC50 (HFL1) does the source give for `CC(C)(C)c1cc(O)c(CN2CCCCC2)c2c1oc1c3ccc(O)cc3oc(=O)c12` here?
A: Its IC50 is 22.3 µM.

Q: And the MIC (Escherichia coli [5])?
A: Its MIC is > 25 mg/L.

Q: What about the IC50 (HEK293) of the same compound?
A: Its IC50 is 33.6 µM.

Q: What about the IC50 [6] of the same compound?
A: The IC50 was 34.1 µM.

Q: And the IC50 (Vero)?
A: Its IC50 is 8 mg/L (≈ 19 µM).

Q: And the selectivity ratio [1]?
A: The selectivity ratio was 2048.

Q: What about the MIC (Escherichia coli [7]) of the same compound?
A: Its MIC is > 25 mg/L.

Q: What about the Activity [3] of the same compound?
A: Its Activity is “Active”.

Q: What about the IC50 (MRC5) of the same compound?
A: The IC50 was 30.6 µM.

Q: And the Activity [8]?
A: The Activity was “inactive”.

Q: What about the MIC (Bacillus subtilis) of the same compound?
A: The MIC was > 25 mg/L.

Q: Which CLint scaled (in vitro [9]) does the source give for `O=c1oc2ccccc2c2oc3ccc(O)c(CN4CCCCC4)c3c12` here?
A: The CLint scaled was 3.89 L/h/kg.

Q: What about the CLint scaled (in vitro [10]) of the same compound?
A: The CLint scaled was 3.5 L/h/kg.

Q: What about the remaining at 1 h (in vitro [11]) of the same compound?
A: The remaining at 1 h was 14.5%.

Q: What about the half-life (in vitro [12]) of the same compound?
A: Its half-life is 21.4 min.

Q: With `O=c1oc2ccccc2c2oc3ccc(O)c(CN4CCCC4)c3c12` as the compound, how does the IC50 (Vero) read?
A: Its IC50 is 8 mg/L (≈ 23.9 µM).

Q: And the selectivity ratio [1]?
A: The selectivity ratio was 16.

Q: For `NNC(=O)c1ccncc1`, which Activity [13] is on record?
A: The Activity was “Active”.

Q: With `CN(C)[C@@H]1C(O)=C(C(N)=O)C(=O)[C@@]2(O)C(O)=C3C(=O)c4c(O)cccc4[C@@](C)(O)[C@H]3C[C@@H]12` [TETRACYCLINE] as the compound, how does the MIC (Bacillus subtilis) read?
A: Its MIC is > 25 mg/L.

Q: What does the source list for `CC1CCCCN1Cc1c(O)ccc2oc3c4ccccc4oc(=O)c3c12` (centres undefined)?
A: IC50 (Vero): 16 mg/L (≈ 44 µM); selectivity ratio [1]: 16

Q: With `CCOC(=O)c1c(-c2ccc(O)cc2)oc2ccc(O)c(CN3CCCCC3)c12` as the compound, how does the CLint scaled (in vitro [10]) read?
A: The CLint scaled was 3.98 L/h/kg.

Q: What about the remaining at 1 h (in vitro [11]) of the same compound?
A: Its remaining at 1 h is 10.8%.

Q: Which MIC [14] does the source give for `C=CCCCCCCC[C@H]1C(=O)O[C@@H]1CCCCCNC(=O)c1ccc(N(C)C)cc1` here?
A: Its MIC is 0.68 mg/L (≈ 1.59 µM).

Q: Which results are given for `CN[C@H](CC(C)C)C(=O)N[C@H]1C(=O)N[C@@H](CC(N)=O)C(=O)N[C@H]2C(=O)N[C@H]3C(=O)N[C@H](C(=O)N[C@H](C(=O)O)c4cc(O)cc(O)c4-c4cc3ccc4O)[C@H](O)c3ccc(c(Cl)c3)Oc3cc2cc(c3O[C@@H]2O[C@H](CO)[C@@H](O)[C@H](O)[C@H]2O[C@H]2C[C@](C)(N)[C@H](O)[C@H](C)O2)Oc2ccc(cc2Cl)[C@H]1O` [VANCOMYCIN]?
A: MIC (Escherichia coli [5]): > 25 mg/L; MIC (Escherichia coli [7]): > 25 mg/L; MIC (Bacillus subtilis): > 25 mg/L

Q: For `C[C@]12CC[C@H]3[C@@H](CCC4=CC(=O)CC[C@@]43C)[C@@H]1CC[C@@H]2O` [TESTOSTERONE], which CLint scaled (in vitro [10]) is on record?
A: Its CLint scaled is 3.77 L/h/kg.

Q: What about the remaining at 1 h (in vitro [11]) of the same compound?
A: Its remaining at 1 h is 12.5%.

Q: For `O=C(O)Cc1ccccc1Nc1c(Cl)cccc1Cl` [DICLOFENAC], which CLint scaled (in vitro [10]) is on record?
A: The CLint scaled was 6.29 L/h/kg.

Q: What about the half-life (in vitro [12]) of the same compound?
A: Its half-life is 11.9 min.

Q: With `O=c1oc2ccc(O)cc2c2oc3ccc(O)c(CN4CCCCC4)c3c12` as the compound, how does the IC50 (Vero) read?
A: The IC50 was 4 mg/L (≈ 10.9 µM).

Q: And the selectivity ratio [1]?
A: The selectivity ratio was 8.

Q: What does the source list for `CC(C)(C)c1cc(O)c(CN2CCCCC2)c2c1oc1c3ccccc3oc(=O)c12`?
A: IC50 (Vero): 16 mg/L (≈ 39.5 µM); selectivity ratio [1]: 128 to 256

Q: Which IC50 (HFL1) does the source give for `O=c1oc2cc(O)ccc2c2oc3ccc(O)c(CN4CCCCC4)c3c12` here?
A: Its IC50 is > 50 µM.

Q: And the MIC (Escherichia coli [5])?
A: Its MIC is > 25 mg/L.

Q: And the MBC99 [15]?
A: Its MBC99 is 0.0039 to 0.0078 mg/L.

Q: And the remaining at 1 h (in vitro [11])?
A: Its remaining at 1 h is 73.6%.

Q: And the IC50 (HEK293)?
A: Its IC50 is > 50 µM.

Q: And the IC50 [6]?
A: The IC50 was 40.1 µM.

Q: What about the IC50 (Vero) of the same compound?
A: The IC50 was 4 mg/L (≈ 10.9 µM).

Q: And the MIC (Staphylococcus aureus)?
A: Its MIC is > 25 mg/L.

Q: What about the selectivity ratio [1] of the same compound?
A: The selectivity ratio was 1024.

Q: And the MIC (Escherichia coli [7])?
A: Its MIC is > 25 mg/L.

Q: And the IC50 (MRC5)?
A: The IC50 was > 50 µM.

Q: What about the Activity [8] of the same compound?
A: The Activity was “Active”.

Q: And the MIC (Bacillus subtilis)?
A: Its MIC is > 25 mg/L.

Q: With `CCOC(=O)c1c(-c2ccccc2)oc2ccc(O)c(CN3CCCCC3)c12` as the compound, how does the CLint scaled (in vitro [9]) read?
A: Its CLint scaled is 1.57 L/h/kg.

Q: And the CLint scaled (in vitro [10])?
A: Its CLint scaled is 1.42 L/h/kg.

Q: What about the remaining at 1 h (in vitro [11]) of the same compound?
A: Its remaining at 1 h is 46.6%.

Q: What about the half-life (in vitro [12]) of the same compound?
A: Its half-life is 53 min.

Q: For `COC(=O)c1c(NC(=O)c2c(F)c(F)c(F)c(F)c2F)sc2c1CCCCC2`, which MIC [2] is on record?
A: The MIC was 1 µM (≈ 0.419 µg/mL).

Q: With `CCOC(=O)c1c(-c2ccccc2)oc2ccc(O)c(CN3CCC(C)CC3)c12` as the compound, how does the MIC [16] read?
A: Its MIC is 1 mg/L (≈ 2.54 µM).

Q: With `CCOC(=O)C1=C(NC(=O)c2c(F)c(F)c(F)c(F)c2F)SC2CN(CC)CCC12` (centres undefined) as the compound, how does the MIC [17] read?
A: The MIC was 0.23 µM (≈ 0.104 µg/mL).

Q: Which IC50 (Vero) does the source give for `CC(C)(C)c1cc(O)c(CN2CCCCC2)c2c1oc1c3cc(O)ccc3oc(=O)c12` here?
A: Its IC50 is 8 mg/L (≈ 19 µM).

Q: What about the selectivity ratio [1] of the same compound?
A: The selectivity ratio was 64.
